Source: patent US20230265068A1, “TRANSIENT RECEPTOR POTENTIAL CANONICAL 3 INHIBITORS AND METHODS OF USE THEREOF” (University of Tennessee Research Foundation, priority 2020, published 2023)

Biological target: T1, mmTRPC6 (Mus musculus, UniProt Q61143)
T1 construct: expressed in transfected cells; host or cells: HEK293, transient transfection, pMO vector
T1 sequence (Q61143 1-930): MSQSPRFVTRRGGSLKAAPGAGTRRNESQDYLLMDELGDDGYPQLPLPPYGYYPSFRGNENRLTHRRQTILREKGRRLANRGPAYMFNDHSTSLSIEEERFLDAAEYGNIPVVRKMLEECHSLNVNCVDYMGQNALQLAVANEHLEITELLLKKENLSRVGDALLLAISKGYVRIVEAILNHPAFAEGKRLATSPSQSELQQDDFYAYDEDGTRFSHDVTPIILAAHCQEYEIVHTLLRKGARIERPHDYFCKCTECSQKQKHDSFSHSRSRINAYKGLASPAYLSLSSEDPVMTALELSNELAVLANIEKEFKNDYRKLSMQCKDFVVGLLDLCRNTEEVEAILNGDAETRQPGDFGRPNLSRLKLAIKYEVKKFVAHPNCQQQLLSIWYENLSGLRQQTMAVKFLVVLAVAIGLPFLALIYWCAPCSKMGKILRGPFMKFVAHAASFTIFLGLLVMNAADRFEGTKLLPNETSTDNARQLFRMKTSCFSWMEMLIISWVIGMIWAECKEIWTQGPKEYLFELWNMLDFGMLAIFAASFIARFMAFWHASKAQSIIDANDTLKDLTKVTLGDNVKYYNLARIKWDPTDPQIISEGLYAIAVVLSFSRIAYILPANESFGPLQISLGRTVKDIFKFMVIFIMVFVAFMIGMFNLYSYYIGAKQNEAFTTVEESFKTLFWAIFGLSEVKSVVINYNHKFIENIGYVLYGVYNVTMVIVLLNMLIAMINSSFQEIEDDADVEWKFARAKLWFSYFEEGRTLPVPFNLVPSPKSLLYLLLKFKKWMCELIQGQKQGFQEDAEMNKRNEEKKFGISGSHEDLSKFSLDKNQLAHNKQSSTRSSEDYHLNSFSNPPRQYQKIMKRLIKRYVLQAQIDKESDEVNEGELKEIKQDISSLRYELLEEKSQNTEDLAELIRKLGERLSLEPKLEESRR
Experiment: whole-cell patch clamp selectivity, HEK 293 cells overexpressing mmTRPC6
Type: cell-based
Details: HEK293, with agonist, solutions without Ca2+, read-out: % of the current of hTRPC6 inhibited
Experimental: Human embryonic kidney 293 (HEK293; catalog number CRL-1573) cells were cultured in Dulbecco's modified Eagle's medium (Invitrogen) supplemented with 10% fetal bovine serum and 1% penicillin-streptomycin at 37° C. and 5% CO2. Constructs cloned in pMO (a pcDNA3-modified vector) were co-transfected with GFP-pMO, using Lipofectamine 2000 (Invitrogen) according to the manufacturer's instructions. Macroscopic currents in the whole-cell patch clamp configuration were recorded 18-24 h post-transfection. The extracellular solution contained 140 mM NaCl, 6 mM KCl, 2 mM MgCl2, 10 mM HEPES, and 10 mM glucose (pH 7.4). Pipettes were made of borosilicate glass (outer diameter, 1.5 mm; inner diameter, 1.10 mm; Sutter Instruments) and fire-polished with a resistance between 2.8 and 4.0 megaohms when filled with an intracellular solution that contained 140 mM CsCl, 5 mM EGTA, and 10 mM HEPES, pH 7.2. Currents were recorded with a Multiclamp 700B amplifier (Molecular Devices) using a 1-s ramp from −100 to 100 mV. […] Data were acquired with a sampling rate of 20 kHz, low-pass filtered (10 kHz), and analyzed offline using Clampfit v10.4.2.0 (Molecular Devices). […]

## CCNC(=O)c1cnn(-c2ccc(-n3ccc(Cl)c(Cl)c3=O)cc2)c1C(F)(F)F [Compound 22]
  inhibition at 10 µM: ~39%
